These results are taken from patent US5622962A, “5α-reductase inhibitors” (priority 1995, dated 1997).

Like-named read-outs stand apart in the source and are kept apart here.

What is called inhibition is the percentage by which the read-out fell short of the control.

The target of assay [1] is T1, Type I 5α-Reductase from Human Scalp (Homo sapiens, UniProt P18405).
T1 construct: Scalp punch biopsies from graft recipient sites were obtained from human hair transplant procedures; from tissue; host or cells: human scalp punch biopsies (hair transplant graft recipient sites), homogenate, 100,000×g pellet
T1 sequence (P18405 1-259): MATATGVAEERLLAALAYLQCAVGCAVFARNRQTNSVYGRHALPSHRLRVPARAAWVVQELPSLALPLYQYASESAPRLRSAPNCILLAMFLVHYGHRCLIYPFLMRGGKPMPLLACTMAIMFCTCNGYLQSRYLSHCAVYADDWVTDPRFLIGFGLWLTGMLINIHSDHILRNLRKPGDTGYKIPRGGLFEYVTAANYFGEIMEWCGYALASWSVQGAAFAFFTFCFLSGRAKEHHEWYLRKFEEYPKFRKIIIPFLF
As to the kind of experiment: Human Type I 5α-reductase assay (conversion of [3H]-testosterone to 5α-reduced metabolites). To be noted: for percent inhibition of Type I AR: 0.3 μM. The class given is biochemical.

The target in assay [2] is T2, Type II 5α-Reductase from Human Prostate (Homo sapiens, UniProt P31213).
T2 construct: The same procedure as above was used for preparations using tissue from prostate surgery; from tissue; host or cells: human prostate tissue from surgery, homogenate, 100,000×g pellet
T2 sequence (P31213 1-254): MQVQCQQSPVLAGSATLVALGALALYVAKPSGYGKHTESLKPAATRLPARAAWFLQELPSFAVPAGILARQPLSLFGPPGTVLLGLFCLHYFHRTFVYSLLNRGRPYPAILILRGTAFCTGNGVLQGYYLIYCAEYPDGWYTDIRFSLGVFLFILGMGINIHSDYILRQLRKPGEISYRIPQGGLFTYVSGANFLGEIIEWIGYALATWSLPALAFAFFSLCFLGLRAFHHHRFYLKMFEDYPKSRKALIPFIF
As to the kind of experiment: Human Type II 5α-reductase assay (conversion of [3H]-testosterone to 5α-reduced metabolites). The format is biochemical.

The mark [3] stands for this setting: pH 7.5, 0.3 μM, 50 nM [3H]-testosterone, pH 7.5, 25°, 180 min, compared to control reaction mixtures, read-out: percent inhibition of Type I AR.
Where [4] appears, read: pH 5.5, 0.3 μM, sodium acetate pH 5.5, 25°, 30 min, compared to control reaction mixtures, read-out: percent inhibition of Type II AR.
[5] abbreviates: pH 7.5, read-out: percent inhibition of Type I AR.
The mark [6] stands for this setting: pH 5.5, read-out: percent inhibition of Type II AR.
Where [7] appears, read: 50 nM [3H]-testosterone, pH 7.5, 25°, 180 min, compared to control reaction mixtures.

As for `CN1C(=O)CC[C@]2(C)c3ccc(NC(=O)c4cccc(N)c4)cc3CC[C@@H]12` [Example 270, (4aR)-(10bR)-4,10b-dimethyl-8-(3-aminobenzoylamino)-1,2,3,4,4a,5,6,10b-octahydrobenzo[f]quinolin-3-one], the results for the inhibition at 0.3 µM in assay [1] (setting [3]) and in assay [2] (setting [4]) were 18% and 13%, respectively.
For `CN1C(=O)CC[C@]2(C)c3ccc(-c4cccc(NC(c5ccccc5)c5ccccc5)c4)cc3CC[C@@H]12` [Example 272, (+)-(4aR)-(10bR)-4-methyl-8-(3-diphenylmethylaminophenyl)-10b-methyl-1,2,3,4,4a,5,6,10b-octahydrobenzo[f]quinolin-3-one] the same measures were 86% and 11%.
For `CN1C(=O)CC[C@]2(C)c3ccc(-c4cccc(NC(=O)C(C)(C)C)c4)cc3CC[C@@H]12` [Example 274, (+)-(4aR)-(10bR)-4-methyl-8-(3-[pivaloylamino]phenyl)-10b-methyl-1,2,3,4,4a,5,6,10b-octahydrobenzo[f]quinolin-3-one] the same measures were 34% and 32%.
The corresponding values for `CN1C(=O)CC[C@]2(C)c3ccc(CCCc4ccccc4)cc3CC[C@@H]12` [Example 275, (+)-(4aR)-(10bR)-4-methyl-8-(3-phenylpropyl)-10b-methyl-1,2,3,4,4a,5,6,10b-octahydrobenzo[f]quinolin-3-one] are 75% and 44%.
In the case of `CN1C(=O)CC[C@]2(C)c3ccc(CCc4ccc5ccccc5c4)cc3CC[C@@H]12` [Example 276, (+)-(4aR)-(10bR)-4-methyl-8-(2-[2-naphthyl]ethyl)-10b-methyl-1,2,3,4,4a,5,6,10b-octahydrobenzo[f]quinolin-3-one], the inhibition at 0.3 µM in assay [1] (setting [3]) was 92%; in assay [2] (setting [4]), 33%.
For `CN1C(=O)CC[C@]2(C)c3ccc(CC(=O)Nc4ccccc4)cc3CC[C@@H]12` [Example 277, (4aR)-(10bR)-4,10b-dimethyl-8-phenylaminocarbonylmethyl-1,2,3,4,4a,5,6,10b-octahydrobenzo[f]quinolin-3-one] the same measures were 42% and 40%.
As for `CN1C(=O)CC[C@]2(C)c3ccc(/C=C/c4ccccc4)cc3CC[C@@H]12` [Example 279, (4aR)-(10bR)-4,10b-dimethyl-8-(2-phenylethenyl)-1,2,3,4,4a,5,6,10b-octahydrobenzo[f]quinolin-3-one], the inhibition at 0.3 µM in assay [1] (setting [5]) was 85%; in assay [2] (setting [6]), 60%.
For `CN1C(=O)CC[C@]2(C)c3ccc(CCc4ccccc4)cc3CC[C@@H]12` [Example 280, (4aR)-(10bR)-4,10b-dimethyl-8-(2-phenylethyl)-1,2,3,4,4a,5,6,10b-octahydrobenzo[f]quinolin-3-one], in assay [1] (setting [7]), the “percent inhibition of Type I AR” value is on record as 100%. The results for the inhibition at 0.3 µM in assay [1] (setting [3]) and in assay [2] (setting [4]) were 97% and 33%, respectively.
On to `CN1C(=O)CC[C@]2(C)c3ccc(C#Cc4ccccc4)cc3CC[C@@H]12` [Example 284, (4aR)-(10bR)-4,10b-dimethyl-8-(2-phenylethynyl)-1,2,3,4,4a,5,6,10b-octahydrobenzo[f]quinolin-3-one], for which the inhibition at 0.3 µM in assay [1] (setting [5]) was determined as 86%; in assay [2] (setting [6]) it was 63%.
The corresponding values for `CN1C(=O)CC[C@]2(C)c3ccc(/C=C\c4ccccc4)cc3CC[C@@H]12` [Example 285, (4aR)-(10bR)-4,10b-dimethyl-8-(2-phenylethenyl)-1,2,3,4,4a,5,6,10b-octahydrobenzo[f]quinolin-3-one] are 93% and 36%.
For the compound `CN1C(=O)CC[C@]2(C)c3ccc(C(=O)c4ccccc4)cc3CC[C@@H]12` [Example 286, (4aR)-(10bR)-8-benzoyl-4,10b-dimethyl-1,2,3,4,4a,5,6,10b-octahydrobenzo[f]quinolin-3-one], the figures for the inhibition at 0.3 µM in assay [1] (setting [3]) and in assay [2] (setting [4]) were 53% and 38%, respectively.
The corresponding values for `CN1C(=O)CC[C@]2(C)c3ccc(Cc4ccccc4)cc3CC[C@@H]12` [Example 287, (4aR)-(10bR)-8-benzyl-4,10b-dimethyl-1,2,3,4,4a, 5,6, 10b-octahydrobenzo[f]quinolin-3-one] are 82% and 37%.
Regarding `CN1C(=O)CC[C@]2(C)c3ccc(C(=O)c4ccccc4Cl)cc3CC[C@@H]12` [Example 288, (4aR)-(10bR)-8-(2-chlorobenzoyl)-4,10b-dimethyl-1,2,3,4,4a,5,6,10b-octahydrobenzo[f]quinolin-3-one], the results for the inhibition at 0.3 µM in assay [1] (setting [3]) and in assay [2] (setting [4]) were 19% and 12%, respectively.
For `C[C@]12CCC(=O)N[C@@H]1CCc1cc(CSc3ccccc3)ccc12` [Example 289, (4aR)-(10bR)-8-phenylthiomethyl-10b-methyl-1,2,3,4,4a,5,6,10b-octahydrobenzo[f]quinolin-3-one] the same measures were 23% and 24%.
The corresponding values for `C[C@]12CCC(=O)N[C@@H]1CCc1cc(CSc3nc4ccccc4s3)ccc12` [Example 290, (4aR)-(10bR)-8-(2-benzothiazolyl)thiomethyl-10b-methyl-1,2,3,4,4a,5,6,10b-octahydrobenzo[f]quinolin-3-one] are 25% and 8%.
Take `CN1C(=O)CC[C@]2(C)c3ccc(-c4cccc(CNC(c5ccccc5)c5ccccc5)c4)cc3CC[C@@H]12` [Example 292, (+)-(4aR)-(10bR)-4-methyl-8-(3-diphenylmethylaminomethylphenyl)-10b-methyl-1,2,3,4,4a,5,6,10b-octahydrobenzo[f]quinolin-3-one]: the inhibition at 0.3 µM in assay [1] (setting [3]) turned out to be 86%; in assay [2] (setting [4]), 11%.
As for “(+)-(4aR)-(10bR)-8-(3-isoquinolinyl)-10b-methyl-3,4,4a,5,6,10b-hexahydrobenzo[f]quinolin-3-one [Example 142]”, in assay [1] (setting [7]), the “percent inhibition of Type I AR” value is 22%. In assay [2] (0.3 μM, sodium acetate pH 5.5, 25°, 30 min, compared to control reaction mixtures), the “percent inhibition of Type II AR” value stood at 40%.
